How the values were obtained:
K562 = assay: Cytotoxicity against human K562 cells; type: functional
[1] = Cytotoxicity against human NCI60 cells; type: functional
Escherichia coli = assay: Induction of cross linking in DS pUC18 plasmid

SMILES	GI50 (K562) [nM]	GI50 [1] [nM]	TGI [1] [nM]	XL50 (Escherichia coli) [µM]	LC50 [1] [nM]
C=C1C[C@H]2C=Nc3cc(OCCCOc4cc5c(cc4OC)C(=O)N4CC(=C)C[C@H]4C=N5)c(OC)cc3C(=O)N2C1 [SJG-136]	8	7	87	0.06	
COc1cc2c(cc1OCCCNC(=O)c1cc(NC(=O)c3cc(NC(=O)c4cc(NC(=O)CCCOc5cc6c(cc5OC)C(=O)N5CCC[C@H]5C=N6)cn4C)cn3C)cn1C)N=C[C@@H]1CCCN1C2=O	37	14	490	0.23	22900

Reference: ChEMBL document CHEMBL1143224, “An asymmetric C8/C8'-tripyrrole-linked sequence-selective pyrrolo[2,1-c][1,4]benzodiazepine (PBD) dimer DNA interstrand cross-linking agent spanning 11 DNA base pairs” (2008)
